Measured values taken from US20240141294A1, “CGMP COMPLIANT PRODUCTION AND EXPANSION OF PLASMACYTOID DENDRITIC CELLS FROM HEMATOPOIETIC STEM AND PROGENITOR CELLS” (AARHUS UNIVERSITET, priority 2021, published 2024).

Test system: HSPC-pDCs
Assay: RNA-sequencing of HSPC-pDCs generated with or without ascorbic acid
Type: cell-based, human
Description: HSPCs were thawed and 1×10^5 cells were seeded in DC medium with or without supplementation of ascorbic acid (AA). Following 16 days of differentiation with or without AA in the medium, pDCs were isolated by immunomagnetic depletion of non-pDCs, and HSPCs-pDCs were then primed for 72 hours with IFN-β/γ. Following priming, HSPC-pDCs were stored in RNAprotect Cell Reagent (Qiagen) at −80° C. until total RNA was extracted using the RNeasy Plus Micro Kit (Qiagen), which efficiently eliminates genomic DNA without the need for DNase treatment. The total RNA was send to BGI Europe for RNA-seq. Here, a non-stranded & polyA-selected mRNA library was prepared from the total RNA and subjected to PE100 sequencing using the BGISEQ platform. The samples generated on average about 4.84 Gb bases per sample. Low quality reads were filtered and the remaining reads were mapped to the genome with an average mapping ratio with the reference genome at 92.74%, the average gene mapping ratio at 79.90%. In total, 18,412 genes were identified. Gene expression was calculated based on the reads, differentially expressed genes and gene ontology analyses were analyzed on BGI's software analysis platform Dr. Tom. HSPCs were thawed and 1×10^5 cells were seeded in DC medium with or without supplementation of ascorbic acid (AA). Following 16 days of differentiation with or without AA in the medium, pDCs were isolated by immunomagnetic depletion of non-pDCs, and HSPCs-pDCs were then primed for 72 hours with IFN-β/γ. Following priming, HSPC-pDCs were stored in RNAprotect Cell Reagent (Qiagen) at −80 degrees until total RNA was extracted using the RNeasy Plus Micro Kit (Qiagen), which efficiently eliminates genomic DNA without the need for DNase treatment. The total RNA was send to BGI Europe for RNA-seq. Here, a non-stranded & polyA-selected mRNA library was prepared from the total RNA and subjected to PE100 sequencing using the BGISEQ platform. The samples generated on average about 4.84 Gb bases per sample. Low quality reads were filtered and the remaining reads were mapped to the genome with an average mapping ratio with the reference genome at 92.74%, the average gene mapping ratio at 79.90%. In total, 18,412 genes were identified. Gene expression was calculated based on the reads, differentially expressed genes and gene ontology analyses were analyzed on BGI's software analysis platform Dr. Tom.

[1] = condition with AA, |log 2FC|>=1 and Qvalue <=0.05

## O=C1O[C@H]([C@@H](O)CO)C(O)=C1O [ascorbic acid]
[1]
  number of downregulated genes: 334 genes
  number of upregulated genes: 916 genes
Gene ADA2, Qvalue 2.90E−08
  Log2 (+AA/−AA): 0.759
Gene ADA2, −AA FPKM 117.7033
  +AA FPKM: 197.7367 FPKM
Gene ALOX5AP, Qvalue 0.002016945
  Log2 (+AA/−AA): 0.793
Gene ALOX5AP, −AA FPKM 210
  +AA FPKM: 364 FPKM
Gene ANXA2, Qvalue 9.39E−07
  Log2 (+AA/−AA): 1.658
Gene ANXA2, −AA FPKM 106
  +AA FPKM: 333 FPKM
Gene APP, Qvalue 0.015253176
  Log2 (+AA/−AA): 0.696
Gene APP, −AA FPKM 133
  +AA FPKM: 215 FPKM
Gene BRI3, Qvalue 0.00802755
  Log2 (+AA/−AA): 0.724
Gene BRI3, −AA FPKM 216
  +AA FPKM: 358 FPKM
Gene C1QA, Qvalue 0.002254892
  Log2 (+AA/−AA): 1.342
Gene C1QA, −AA FPKM 91
  +AA FPKM: 230 FPKM
Gene C1QB, Qvalue 0.011037205
  Log2 (+AA/−AA): 1.137
Gene C1QB, −AA FPKM 147
  +AA FPKM: 323 FPKM
Gene C1QC, Qvalue 0.002547556
  Log2 (+AA/−AA): 1.551
Gene C1QC, −AA FPKM 126
  +AA FPKM: 365 FPKM
Gene C1orf162, Qvalue 0.038404809
  Log2 (+AA/−AA): 0.529
Gene C1orf162, −AA FPKM 178
  +AA FPKM: 256 FPKM
Gene CD68, Qvalue 3.20E−09
  Log2 (+AA/−AA): 1.365
Gene CD68, −AA FPKM 240
  +AA FPKM: 619 FPKM
Gene CD74, Qvalue 3.24E−08
  Log2 (+AA/−AA): 0.841
Gene CD74, −AA FPKM 5008
  +AA FPKM: 8923 FPKM
Gene CD81, Qvalue 0.002330558
  Log2 (+AA/−AA): 1.451
Gene CD81, −AA FPKM 85
  +AA FPKM: 235 FPKM
Gene CHI3L1, Qvalue 0.024834793
  Log2 (+AA/−AA): 2.178
Gene CHI3L1, −AA FPKM 108
  +AA FPKM: 496 FPKM
Gene CTSB, Qvalue 6.81E−09
  Log2 (+AA/−AA): 1.920
Gene CTSB, −AA FPKM 96
  +AA FPKM: 363 FPKM
Gene CTSD, Qvalue 1.73E−06
  Log2 (+AA/−AA): 1.460
Gene CTSD, −AA FPKM 323
  +AA FPKM: 893 FPKM
Gene CTSH, Qvalue 2.00E−04
  Log2 (+AA/−AA): 1.227
Gene CTSH, −AA FPKM 116
  +AA FPKM: 271 FPKM
Gene CTSS, Qvalue 1.80E−04
  Log2 (+AA/−AA): 0.939
Gene CTSS, −AA FPKM 126
  +AA FPKM: 242 FPKM
Gene CTSZ, Qvalue 3.93E−08
  Log2 (+AA/−AA): 1.002
Gene CTSZ, −AA FPKM 232
  +AA FPKM: 462 FPKM
Gene CYBB, Qvalue 0.018453508
  Log2 (+AA/−AA): 0.807
Gene CYBB, −AA FPKM 184
  +AA FPKM: 322 FPKM
Gene DEFA1, Qvalue 6.38E−05
  Log2 (+AA/−AA): 5.728
Gene DEFA1, −AA FPKM 20
  +AA FPKM: 1047 FPKM
Gene DEFA3, Qvalue 0.001704486
  Log2 (+AA/−AA): 4.431
Gene DEFA3, −AA FPKM 27
  +AA FPKM: 593 FPKM
Gene DEFA4, Qvalue 1.65E−08
  Log2 (+AA/−AA): 4.651
Gene DEFA4, −AA FPKM 39
  +AA FPKM: 975 FPKM
Gene EVI2B, Qvalue 0.01888367
  Log2 (+AA/−AA): 0.294
Gene EVI2B, −AA FPKM 193
  +AA FPKM: 236 FPKM
Gene FCER1G, Qvalue 0.033270138
  Log2 (+AA/−AA): 0.509
Gene FCER1G, −AA FPKM 961
  +AA FPKM: 1367 FPKM
Gene FLNA, Qvalue 0.011692048
  Log2 (+AA/−AA): 0.372
Gene FLNA, −AA FPKM 160.4000
  +AA FPKM: 206.4233 FPKM
Gene FTH1, Qvalue 0.00845252
  Log2 (+AA/−AA): 1.289
Gene FTH1, −AA FPKM 1395
  +AA FPKM: 3417 FPKM
Gene GRINA, Qvalue 0.006989716
  Log2 (+AA/−AA): 0.718
Gene GRINA, −AA FPKM 130
  +AA FPKM: 214 FPKM
Gene GRN, Qvalue 0.015829898
  Log2 (+AA/−AA): 0.695
Gene GRN, −AA FPKM 432
  +AA FPKM: 696 FPKM
Gene HLA-DMB, Qvalue 0.022417743
  Log2 (+AA/−AA): 0.717
Gene HLA-DMB, −AA FPKM 188
  +AA FPKM: 307 FPKM
Gene HLA-DPA1, Qvalue 6.34E−04
  Log2 (+AA/−AA): 0.763
Gene HLA-DPA1, −AA FPKM 1038
  +AA FPKM: 1750 FPKM
Gene HLA-DPB1, Qvalue 0.003235049
  Log2 (+AA/−AA): 0.785
Gene HLA-DPB1, −AA FPKM 227
  +AA FPKM: 388 FPKM
Gene HLA-DQA1, Qvalue 0.03140587
  Log2 (+AA/−AA): 1.374
Gene HLA-DQA1, −AA FPKM 161
  +AA FPKM: 414 FPKM
Gene HLA-DRB1, Qvalue 1.76E−04
  Log2 (+AA/−AA): 1.122
Gene HLA-DRB1, −AA FPKM 1106
  +AA FPKM: 2401 FPKM
Gene HLA-DRB3, Qvalue 0.018823029
  Log2 (+AA/−AA): 1.224
Gene HLA-DRB3, −AA FPKM 159
  +AA FPKM: 365 FPKM
Gene IFI27, Qvalue 3.56E−04
  Log2 (+AA/−AA): 4.638
Gene IFI27, −AA FPKM 15
  +AA FPKM: 377 FPKM
Gene IFITM3, Qvalue 6.61E−06
  Log2 (+AA/−AA): 1.496
Gene IFITM3, −AA FPKM 494
  +AA FPKM: 1383 FPKM
Gene IL2RG, Qvalue 0.001778062
  Log2 (+AA/−AA): 0.785
Gene IL2RG, −AA FPKM 122
  +AA FPKM: 209 FPKM
Gene ITGB2, Qvalue 9.28E−04
  Log2 (+AA/−AA): 0.599
Gene ITGB2, −AA FPKM 433
  +AA FPKM: 654 FPKM
Gene LGALS3, Qvalue 5.07E−04
  Log2 (+AA/−AA): 1.667
Gene LGALS3, −AA FPKM 62.3833
  +AA FPKM: 199.3967 FPKM
Gene LGALS3BP, Qvalue 5.08E−05
  Log2 (+AA/−AA): 1.001
Gene LGALS3BP, −AA FPKM 155
  +AA FPKM: 310 FPKM
Gene MX1, Qvalue 0.026353098
  Log2 (+AA/−AA): 2.341
Gene MX1, −AA FPKM 42
  +AA FPKM: 212 FPKM
Gene NCF1, Qvalue 0.015338721
  Log2 (+AA/−AA): 0.659
Gene NCF1, −AA FPKM 131
  +AA FPKM: 207 FPKM
Gene PRDX1, Qvalue 0.009710824
  Log2 (+AA/−AA): 1.094
Gene PRDX1, −AA FPKM 106
  +AA FPKM: 227 FPKM
Gene PSAP, Qvalue 7.31E−04
  Log2 (+AA/−AA): 0.802
Gene PSAP, −AA FPKM 600
  +AA FPKM: 1044 FPKM
Gene RETN, Qvalue 0.035172121
  Log2 (+AA/−AA): 0.766
Gene RETN, −AA FPKM 244
  +AA FPKM: 414 FPKM
Gene S100A11, Qvalue 0.024890893
  Log2 (+AA/−AA): 0.525
Gene S100A11, −AA FPKM 732
  +AA FPKM: 1054 FPKM
Gene SERPING1, Qvalue 2.30E−05
  Log2 (+AA/−AA): 1.387
Gene SERPING1, −AA FPKM 181
  +AA FPKM: 471 FPKM
Gene SOD2, Qvalue 0.017321675
  Log2 (+AA/−AA): 1.145
Gene SOD2, −AA FPKM 129
  +AA FPKM: 301 FPKM
Gene TYMP, Qvalue 0.016368204
  Log2 (+AA/−AA): 0.679
Gene TYMP, −AA FPKM 348
  +AA FPKM: 553 FPKM
Of 54 selected genes, AA in media during HSPC-pDC generation
  number of TLR7 and TLR9 pathway genes statistically significantly expressed: 17 genes
